Data published in the supplement of paper PMC10883282.
± gives the standard deviation of the averaged measurements.

Columns and labels:
Assay in all cases: relative viability vs DMSO control (72 h) (fraction); higher = more viable cells
G401 = system: G401
How it was run: (§1)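 Relative viability is percent growth read by ATPLite and averaged over up to triplicate wells. Sarcoma cells were seeded in 384-well plates to reach 80–90% confluence and given 2.5 µl of serially diluted compound after 24 h, from source plates of 10 mM to 0.0002 mM. Incubation lasted 72 h at 37 °C, 5% CO2, with 0.1% DMSO vehicle and a 5 µM positive control, and the data were rescaled so 1 equals full and 0 equals none.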

HS729 = system: HS729
How it was run: as §1

HT1080 = system: HT1080
How it was run: as §1

KHOS-240S = system: KHOS-240S
How it was run: as §1

KHOS-NP = system: KHOS-NP
How it was run: as §1

RD-ES = system: RD-ES
How it was run: as §1

RD = system: RD
How it was run: as §1

SK-LMS-1 = system: SK-LMS-1
How it was run: as §1

SW1353 = system: SW1353
How it was run: as §1

SW684 = system: SW684
How it was run: as §1

SW872 = system: SW872
How it was run: as §1

SYO-1 = system: SYO-1
How it was run: as §1

C[C@]12O[C@H](C[C@]1(O)CO)n1c3ccccc3c3c4c(c5c6ccccc6n2c5c31)CNC4=O [Lestaurtinib]
relative viability (G401; 0.00017 µM): 1.01 ± 0.059
relative viability (G401; 0.00051 µM): 0.985 ± 0.025
relative viability (G401; 0.00152 µM): 1.03 ± 0.019
relative viability (G401; 0.00457 µM): 1.02 ± 0.059
relative viability (G401; 0.01372 µM): 1.03 ± 0.041
relative viability (G401; 0.04115 µM): 0.996 ± 0.035
relative viability (G401; 0.1235 µM): 0.985 ± 0.03
relative viability (G401; 0.3704 µM): 0.912 ± 0.027
relative viability (G401; 1.111 µM): 0.718 ± 0.036
relative viability (G401; 3.333 µM): 0.023 ± 0.0029
relative viability (G401; 10 µM): 0.00583 ± 0.0018
relative viability (HS729; 0.00017 µM): 1.05 ± 0.076
relative viability (HS729; 0.00051 µM): 1 ± 0.097
relative viability (HS729; 0.00152 µM): 1.01 ± 0.041
relative viability (HS729; 0.00457 µM): 0.932 ± 0.055
relative viability (HS729; 0.01372 µM): 0.863 ± 0.019
relative viability (HS729; 0.04115 µM): 0.797 ± 0.032
relative viability (HS729; 0.1235 µM): 0.757 ± 0.016
relative viability (HS729; 0.3704 µM): 0.723 ± 0.059
relative viability (HS729; 1.111 µM): 0.619 ± 0.029
relative viability (HS729; 3.333 µM): 0.411 ± 0.038
relative viability (HS729; 10 µM): 0.207 ± 0.014
relative viability (HT1080; 0.00017 µM): 1.09 ± 0.05
relative viability (HT1080; 0.00051 µM): 1.11 ± 0.013
relative viability (HT1080; 0.00152 µM): 1.1 ± 0.025
relative viability (HT1080; 0.00457 µM): 1.12 ± 0.019
relative viability (HT1080; 0.01372 µM): 1.09 ± 0.033
relative viability (HT1080; 0.04115 µM): 1.12 ± 0.036
relative viability (HT1080; 0.1235 µM): 0.915 ± 0.022
relative viability (HT1080; 0.3704 µM): 0.877 ± 0.033
relative viability (HT1080; 1.111 µM): 0.689 ± 0.013
relative viability (HT1080; 3.333 µM): 0.185 ± 0.0021
relative viability (HT1080; 10 µM): 0.0222 ± 0.0018
relative viability (KHOS-240S; 0.00017 µM): 1.086 ± 0.01
relative viability (KHOS-240S; 0.00051 µM): 1.06 ± 0.013
relative viability (KHOS-240S; 0.00152 µM): 1.1 ± 0.03
relative viability (KHOS-240S; 0.00457 µM): 1.04 ± 0.018
relative viability (KHOS-240S; 0.01372 µM): 1.06 ± 0.027
relative viability (KHOS-240S; 0.04115 µM): 1.05 ± 0.028
relative viability (KHOS-240S; 0.1235 µM): 0.892 ± 0.029
relative viability (KHOS-240S; 0.3704 µM): 0.525 ± 0.033
relative viability (KHOS-240S; 1.111 µM): 0.345 ± 0.023
relative viability (KHOS-240S; 3.333 µM): 0.169 ± 0.0091
relative viability (KHOS-240S; 10 µM): 0.0619 ± 0.011
relative viability (KHOS-NP; 0.00017 µM): 1.11 ± 0.02
relative viability (KHOS-NP; 0.00051 µM): 1.108 ± 0.01
relative viability (KHOS-NP; 0.00152 µM): 1.11 ± 0.031
relative viability (KHOS-NP; 0.00457 µM): 1.1 ± 0.029
relative viability (KHOS-NP; 0.01372 µM): 1.1 ± 0.029
relative viability (KHOS-NP; 0.04115 µM): 1.08 ± 0.018
relative viability (KHOS-NP; 0.1235 µM): 0.9051 ± 0.0063
relative viability (KHOS-NP; 0.3704 µM): 0.785 ± 0.026
relative viability (KHOS-NP; 1.111 µM): 0.471 ± 0.013
relative viability (KHOS-NP; 3.333 µM): 0.205 ± 0.0014
relative viability (KHOS-NP; 10 µM): 0.091 ± 0.0093
relative viability (RD-ES; 0.00017 µM): 0.996 ± 0.033
relative viability (RD-ES; 0.00051 µM): 1 ± 0.053
relative viability (RD-ES; 0.00152 µM): 0.999 ± 0.02
relative viability (RD-ES; 0.00457 µM): 0.989 ± 0.044
relative viability (RD-ES; 0.01372 µM): 0.936 ± 0.02
relative viability (RD-ES; 0.04115 µM): 0.804 ± 0.034
relative viability (RD-ES; 0.1235 µM): 0.497 ± 0.012
relative viability (RD-ES; 0.3704 µM): 0.288 ± 0.014
relative viability (RD-ES; 1.111 µM): 0.16 ± 0.0038
relative viability (RD-ES; 3.333 µM): 0.0482 ± 0.0073
relative viability (RD-ES; 10 µM): 0.0633 ± 0.0032
relative viability (RD; 0.00017 µM): 1.05 ± 0.062
relative viability (RD; 0.00051 µM): 1.064 ± 0.0053
relative viability (RD; 0.00152 µM): 1.09 ± 0.053
relative viability (RD; 0.00457 µM): 1.09 ± 0.045
relative viability (RD; 0.01372 µM): 1.1 ± 0.05
relative viability (RD; 0.04115 µM): 1.06 ± 0.051
relative viability (RD; 0.1235 µM): 1.01 ± 0.058
relative viability (RD; 0.3704 µM): 0.892 ± 0.026
relative viability (RD; 1.111 µM): 0.645 ± 0.014
relative viability (RD; 3.333 µM): 0.326 ± 0.016
relative viability (RD; 10 µM): 0.126 ± 0.0075
relative viability (SK-LMS-1; 0.00017 µM): 1.08 ± 0.052
relative viability (SK-LMS-1; 0.00051 µM): 1.1 ± 0.028
relative viability (SK-LMS-1; 0.00152 µM): 1.06 ± 0.024
relative viability (SK-LMS-1; 0.00457 µM): 1.04 ± 0.061
relative viability (SK-LMS-1; 0.01372 µM): 1.01 ± 0.044
relative viability (SK-LMS-1; 0.04115 µM): 0.878 ± 0.012
relative viability (SK-LMS-1; 0.1235 µM): 0.722 ± 0.067
relative viability (SK-LMS-1; 0.3704 µM): 0.669 ± 0.047
relative viability (SK-LMS-1; 1.111 µM): 0.541 ± 0.025
relative viability (SK-LMS-1; 3.333 µM): 0.353 ± 0.02
relative viability (SK-LMS-1; 10 µM): 0.146 ± 0.0046
relative viability (SW1353; 0.00017 µM): 1.04 ± 0.059
relative viability (SW1353; 0.00051 µM): 1.01 ± 0.025
relative viability (SW1353; 0.00152 µM): 1 ± 0.019
relative viability (SW1353; 0.00457 µM): 0.975 ± 0.033
relative viability (SW1353; 0.01372 µM): 0.943 ± 0.025
relative viability (SW1353; 0.04115 µM): 0.868 ± 0.032
relative viability (SW1353; 0.1235 µM): 0.756 ± 0.0078
relative viability (SW1353; 0.3704 µM): 0.698 ± 0.049
relative viability (SW1353; 1.111 µM): 0.6462 ± 0.00028
relative viability (SW1353; 3.333 µM): 0.375 ± 0.01
relative viability (SW1353; 10 µM): 0.155 ± 0.019
relative viability (SW684; 0.00017 µM): 1.15 ± 0.013
relative viability (SW684; 0.00051 µM): 1.18 ± 0.032
relative viability (SW684; 0.00152 µM): 1.16 ± 0.03
relative viability (SW684; 0.00457 µM): 1.17 ± 0.034
relative viability (SW684; 0.01372 µM): 1.18 ± 0.035
relative viability (SW684; 0.04115 µM): 1.13 ± 0.03
relative viability (SW684; 0.1235 µM): 1.11 ± 0.04
relative viability (SW684; 0.3704 µM): 0.913 ± 0.02
relative viability (SW684; 1.111 µM): 0.659 ± 0.0087
relative viability (SW684; 3.333 µM): 0.346 ± 0.014
relative viability (SW684; 10 µM): 0.0527 ± 0.0014
relative viability (SW872; 0.00017 µM): 1.08 ± 0.026
relative viability (SW872; 0.00051 µM): 1.07 ± 0.024
relative viability (SW872; 0.00152 µM): 1.04 ± 0.038
relative viability (SW872; 0.00457 µM): 1.03 ± 0.016
relative viability (SW872; 0.01372 µM): 0.955 ± 0.05
relative viability (SW872; 0.04115 µM): 0.803 ± 0.034
relative viability (SW872; 0.1235 µM): 0.648 ± 0.043
relative viability (SW872; 0.3704 µM): 0.507 ± 0.014
relative viability (SW872; 1.111 µM): 0.358 ± 0.0086
relative viability (SW872; 3.333 µM): 0.267 ± 0.015
relative viability (SW872; 10 µM): 0.0094 ± 0.014
relative viability (SYO-1; 0.00017 µM): 1.02 ± 0.039
relative viability (SYO-1; 0.00051 µM): 0.989 ± 0.041
relative viability (SYO-1; 0.00152 µM): 0.992 ± 0.048
relative viability (SYO-1; 0.00457 µM): 0.991 ± 0.05
relative viability (SYO-1; 0.01372 µM): 0.943 ± 0.061
relative viability (SYO-1; 0.04115 µM): 0.873 ± 0.032
relative viability (SYO-1; 0.1235 µM): 0.644 ± 0.045
relative viability (SYO-1; 0.3704 µM): 0.295 ± 0.019
relative viability (SYO-1; 1.111 µM): 0.0874 ± 0.023
relative viability (SYO-1; 3.333 µM): 0.1 ± 0.0065
relative viability (SYO-1; 10 µM): 0.102 ± 0.022
